Here are results for 44 molecules from patent US20260097047A1, “Small molecule inhibitors of the ribosome biogenesis factor NVL2” (Board of Regents, The University of Texas System, priority 2023, published 2026).

Where two headings read alike, the source gives them in different places.

The subject of this assay is HCT116 cells. Description: Cell viability assay (CellTiter-Glo, 72 hours) in HCT116 human colorectal cancer cells. It counts as cell-based. A digest of the protocol: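 Ten-point IC50 came from an asymmetric five-parameter fit of luminescence corrected to vehicle wells. ATP content was measured by CellTiter-Glo 72 h after dosing at 37 °C. Cells were seeded at 2,000/well the day before, with 0.5% DMSO in all wells.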

Setting [1] is: Table 4, HCT116, 72 hours, read-out: Activity.
Where [2] appears, read: Table 6, HCT116, 72 hours, read-out: Activity.
Where [3] appears, read: Table 7, cell viability assay, CellTiter-Glo, 72 hours, scaffold drawing 42 with R^2, R^3, X/Y, Z, read-out: Activity.
[4] abbreviates: Table 8, analogs of scaffold drawing 43 defined by R^2, R^3, X/Y, W, read-out: Activity (IC50 class, cell viability assay).
[5] abbreviates: Table 9, HCT116, 72 hours, read-out: Activity.
Where [6] appears, read: Table 5, HCT116, 72 hours, read-out: Activity.
The mark [7] stands for this setting: Homo sapiens, HCT-116, Table 5, HCT116, 72 hours, read-out: Activity.
Where [8] appears, read: Table 3, HCT116, 72 hours, read-out: Activity.

For the molecule `CC#CCN1C(=O)c2ccccc2Sc2cc(NC(=S)Nc3ccc(OC)nc3)cnc21` [Table 4: —CH2CCMe; 6-MeO-pyridin-3-yl; N], the IC50 under setting [1] was less than 500 nM.
With `CC#CCN1C(=O)c2ccccc2Sc2cc(NC3CC(O)C3)cnc21` (centres unmarked) [Table 6: —CH2CCMe; 3-HOcBu; CH/N; S], the IC50 under setting [2] is less than 500 nM.
With `COCCN1C(=O)c2ccccc2Sc2cc(NC(=O)c3ccncc3)ccc21` [—(CH2)2OMe; pyrid-4-yl; CH/CH; S], under setting [3], the IC50 lay in the range of 1000 to 5000 nM.
For `COCCN1C(=O)c2ccccc2Sc2cc(NC(=O)c3ccccc3OC)ccc21` [compound 5], under “Homo sapiens, HCT-116, read-out: IC50s (cellular activity of MM017 derivatives)”, the IC50 amounted to 13000 nM.
Turning to `CC#CCN1C(=O)c2cc(F)ccc2Sc2cc(NC(=O)C(C)CCOC)ccc21` (centres unmarked) [—CH2CCMe; MeO(CH2)2CHMe-; CH/CF; CH], the IC50 under setting [4] was less than 500 nM.
As to `COCCN1C(=O)c2ccccc2Sc2cc(NC(=O)c3cnccn3)ccc21` [—(CH2)2OMe; pyrazin-2-yl; CH/CH; S], the IC50 under setting [3] was in the range of 1000 to 5000 nM.
Take `CC#CCN1C(=O)c2cc(F)ccc2Sc2cc(NC(=O)[C@H]3C[C@@H](OC)C3)ccc21` [—CH2CCMe; cis-3-MeOcBu; CH/CF; CH]: the IC50 under setting [4] is less than 500 nM.
On to `CC1c2ccccc2C(=O)N(CC#CC2CC2)c2ccc(NC(=O)C3CCOC3)cc21` (centres unmarked), for which the IC50 under setting [5] was less than 500 nM.
For the molecule `Cc1cnc(Nc2cnc3c(c2)Sc2ccccc2C(=O)N3CC#CCl)c(C)c1`, the IC50 under setting [6] is less than 500 nM.
On to `CCC/C=C/CN1C(=O)c2ccccc2Sc2cc(Nc3cc(F)ccn3)ccc21` [(E)-7-((4-Fluoropyridin-2-yl)amino)-10-(hex-2-en-1-yl)dibenzo[b,f][1,4]thiazepin-11(10H)-one], for which the IC50 under setting [7] was less than 500 nM.
For the molecule `CC#CCN1C(=O)c2ccc(Cl)cc2Sc2cc(NC(=S)N3CCC3)ccc21`, the IC50 (Table 2, HCT116, 72 hours, read-out: Activity) was less than 500 nM.
For the molecule `CC=CCN1C(=O)c2ccccc2Sc2cc(Nc3ncc(C)cc3C)cnc21`, under setting [6], the IC50 was less than 500 nM.
Turning to `CC#CCN1C(=O)c2ccccc2Sc2cc(Nc3nccc(C#N)n3)ccc21` [2-((10-(But-2-yn-1-yl)-11-oxo-10,11-dihydrodibenzo[b,f][1,4]thiazepin-7-yl)amino)pyrimidine-4-carbonitrile], the IC50 under setting [7] is less than 500 nM.
Take `COC12CC(C(=O)Nc3ccc4c(c3)C(C#N)c3ccccc3C(=O)N4CC#CCF)(C1)C2` (centres unmarked): the IC50 under setting [5] is less than 500 nM.
As for `CC#CCN1C(=O)c2ccccc2Sc2cc(NC(=O)C3CCCO3)cnc21` (centres unmarked) [—CH2CCMe; tetrahydrofuran-2-yl; CH/CH; N], the IC50 under setting [4] is less than 500 nM.
`CC#CCN1C(=O)c2ccccc2Sc2cc(NC(=O)Nc3cccc(OCF)c3)ccc21` [Table 3: —CH2CCMe; 3-FH2COPh; CH/CH]: the IC50 under setting [8] was less than 500 nM.
For `COc1ccc(C(=O)Nc2ccc3c(c2)C(C)(O)c2ccccc2C(=O)N3CC#CCl)cn1` (centres unmarked), the IC50 under setting [5] was less than 500 nM.
For `CON=C1CC2(C1)CC(C(=O)Nc1ccc3c(c1)Sc1ccc(F)cc1C(=O)N3CC#CCl)C2` (centres unmarked), the IC50 under setting [4] is less than 500 nM.
On to `CCCOCCN1C(=O)c2ccccc2Sc2cc(NC(=O)c3ccc(OC)cc3)ccc21` [—(CH2)2OPr; 4-MeOPh; CH/CH; S], for which the IC50 under setting [3] is less than 500 nM.
Take `C#CCN1C(=O)c2ccccc2Sc2cc(Nc3cccnn3)cnc21`: the IC50 under setting [6] is less than 500 nM.
`CC#CCN1C(=O)c2ccccc2Sc2cc(Nc3nc(C#N)ccc3C)ccc21` [6-((10-(But-2-yn-1-yl)-11-oxo-10,11-dihydrodibenzo[b,f][1,4]thiazepin-7-yl)amino)-5-methylpicolinonitrile]: the IC50 under setting [7] was less than 500 nM.
As for `C#CCN1C(=O)c2ccccc2Sc2cc(Nc3nnccc3C)ccc21`, the IC50 under setting [6] is less than 500 nM.
Turning to `CC#CCN1C(=O)c2ccccc2Sc2cc(Nc3ncc(C#N)cc3C)ccc21` [6-((10-(But-2-yn-1-yl)-11-oxo-10,11-dihydrodibenzo[b,f][1,4]thiazepin-7-yl)amino)-5-methylnicotinonitrile], the IC50 under setting [7] was less than 500 nM.
Turning to `CC#CCN1C(=O)c2ccccc2C(C)c2cc(NC(=O)C34CC(O)(C3)C4)ccc21` (centres unmarked), the IC50 under setting [5] is less than 500 nM.
Consider `C#CCN1C(=O)c2ccccc2Sc2cc(NC(=O)C3CC4(CC(=NO)C4)C3)ccc21` (centres unmarked), for which the IC50 under setting [4] was less than 500 nM.
Consider `CC#CCN1C(=O)c2ccccc2C(C)c2cc(NC(=O)NCCOC)ccc21` (centres unmarked) [Table 9: —CH2CCMe; NH(CH2)2OMe; CHMe], for which, under setting [5], the IC50 is less than 500 nM.
Take `CC#CCN1C(=O)c2ccc(Cl)cc2Sc2cc(NC(=O)NCCOC)cnc21` [—CH2CCMe; NH(CH2)2OMe; CCl/CH; N]: the IC50 under setting [4] is less than 500 nM.
As to `COCCN1C(=O)c2ccccc2Sc2cc(NC(=O)c3ncccn3)ccc21` [—(CH2)2OMe; pyrimidin-2-yl; CH/CH; S], the IC50 under setting [3] was 1000 to 5000 nM.
`CC#CCN1C(=O)c2ccccc2Sc2cc(NC(=O)C34CC(O)(C3)C4)cnc21`: the IC50 under setting [4] is less than 500 nM.
In the case of `CC#CCN1C(=O)c2ccccc2Sc2cc(NC(=S)N[C@H]3C[C@H](O)C3)ccc21` [Table 4: —CH2CCMe; trans-3-OH-cBu; CH], the IC50 under setting [1] is less than 500 nM.
On to `CC#CCN1C(=O)c2ccccc2Sc2cc(NC(=O)NC3CC(COC)C3)ccc21` (centres unmarked) [Table 3: —CH2CCMe; 3-MeOCH2-cBu; CH/CH], for which, under setting [8], the IC50 is less than 500 nM.
With `CC#CCN1C(=O)c2ccccc2Sc2cc(NC3CC(COC)C3)cnc21` (centres unmarked) [Table 6: —CH2CCMe; 3-MeOCH2-cBu; CH/N; S, 11-(But-2-yn-1-yl)-3-((3-(methoxymethyl)cyclobutyl)amino)benzo[f]pyrido[3,2-b][1,4]thiazepin-10(11H)-one], the IC50 (Homo sapiens, HCT-116, Table 6, HCT116, 72 hours, read-out: Activity) was less than 500 nM.
Turning to `CC#CCN1C(=O)c2ccccc2Sc2cc(NC(=O)C34CC(C3)C4)ccc21`, the IC50 under setting [4] is less than 500 nM.
Turning to `C#CCOCCN1C(=O)c2ccccc2Sc2cc(NC(=O)c3ccc(OC)cc3)ccc21` [—(CH2)2OCH2CCH; 4-MeOPh; CH/CH; S], under setting [3], the IC50 was less than 500 nM.
With `COCCN1C(=O)c2ccccc2Sc2cc(NC(=O)c3cccc(C#N)c3)ccc21` [—(CH2)2OMe; 3-CNPh; CH/CH; S], the IC50 under setting [3] fell in the range of 1000 to 5000 nM.
Consider `CC#CCN1C(=O)c2ccc(C#N)cc2Sc2cc(Nc3nc(C)cnc3C)ccc21` [10-(But-2-yn-1-yl)-7-((3,6-dimethylpyrazin-2-yl)amino)-11-oxo-10,11-dihydrodibenzo[b,f][1,4]thiazepine-3-carbonitrile], for which the IC50 under setting [7] is less than 500 nM.
In the case of `CC#CCN1C(=O)c2ccccc2C(C)c2cc(NC(=O)[C@H]3C[C@@H](O)C3)ccc21` (stereo partly drawn) [Table 9: —CH2CCMe; cis-3-OH-cBu; CHMe], the IC50 under setting [5] is less than 500 nM.
Take `COCCN1C(=O)c2ccccc2Sc2cc(NC(=O)c3ccc(C(F)(F)F)cc3)ccc21` [—(CH2)2OMe; 4-CF3Ph; CH/CH; S]: the IC50 under setting [3] is 1000 to 5000 nM.
Take `CC#CCN1C(=O)c2cc(F)ccc2Sc2cc(NC(=O)C34CC(O)(C3)C4)ccc21`: the IC50 under setting [4] is less than 500 nM.
On to `CC#CCN1C(=O)c2ccccc2Sc2cc(Nc3ccc(C)nn3)cnc21`, for which, under setting [6], the IC50 was less than 500 nM.
`COCCN1C(=O)c2ccccc2Sc2cc(NC(=O)c3ccc(OC)cc3C)ccc21` [—(CH2)2OMe; 2-Me,4-MeOPh; CH/CH; S]: the IC50 under setting [3] was in the range of 1000 to 5000 nM.
Consider `COC1CC(Nc2cnc3c(c2)Sc2ccccc2C(=O)N3CC#CCl)C1` (centres unmarked) [Table 6: —CH2CCCl; 3-MeOcBu; CH/N; S], for which the IC50 under setting [2] is less than 500 nM.
Take `CC#CCN1C(=O)c2ccccc2Sc2cc(NC(=O)N[C@H]3C[C@@H](O)C3)ccc21` [Table 3: —CH2CCMe; cis-3-OH-cBu; CH/CH]: under setting [8], the IC50 is less than 500 nM.
Regarding `CC#CCN1C(=O)c2ccccc2Sc2cc(Nc3nc(C)ccc3F)ccc21` [10-(But-2-yn-1-yl)-7-((3-fluoro-6-methylpyridin-2-yl)amino)dibenzo[b,f][1,4]thiazepin-11 (10H)-one], the IC50 under setting [7] was less than 500 nM.
